Here are results for 28 compounds from patent publication US20030235877A1, “Conjugates of haptens to beta-lactam derivatives and their use for detecting and/or quantifying haptens in solution and device for implementation thereof” (priority 1996, published 2003).

The target of the first data set is T1, penicillin detector of the Beta-Star® Test (Bacillus licheniformis, UniProt P12287).
T1 construct: purchased UCB, Belgium (BetaSTAR kit)
T1 sequence (P12287 346-601): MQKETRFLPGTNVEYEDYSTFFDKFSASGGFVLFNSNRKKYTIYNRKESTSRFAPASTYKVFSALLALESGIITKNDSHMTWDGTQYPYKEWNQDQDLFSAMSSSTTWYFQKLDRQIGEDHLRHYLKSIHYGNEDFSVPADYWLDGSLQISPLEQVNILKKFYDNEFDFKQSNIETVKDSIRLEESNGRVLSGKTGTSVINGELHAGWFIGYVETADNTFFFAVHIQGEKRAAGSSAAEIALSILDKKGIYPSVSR
As to the kind of experiment: Ka (apparent second-order rate constant for acyl enzyme formation), calculated using the penicillin detector of the Beta-Star Test. The class given is binding. As to conditions: Ka=k2/K. The source says:
(§1) The particular mode of conjugation claimed in the present invention guarantees to maintain kinetic parameters (Km, Ki, kcat and Ka=k2/K, where Km is the enzyme Michaelis-Menten constant, Ki is the inhibitor-enzyme complex dissociation constant, kcat the catalytic constant and Ka the apparent second-order rate constant for acyl enzyme formation respectively) toward β-lactamases and penicillin detectors, which are essentially the same as those of common penicillins.
^□(Column 10): calculated using the penicillin detector of the Beta-Star® Test
The detector showing the best affinity for the progesterone benzylpenicillinate conjugate is the polypeptide included in the Beta-star® kit. This genetic engineering peptide has kept a very high affinity for benzylpenicillin but has no enzymatic activity. It is thus coupled to colored particles for allowing sensitive detection.
Consider `CC(=O)C1CCC2C1CC(OC(C)Cc1ccc(CC(=O)NC3C(=O)N4C3SC(C)(C)C4C(=O)O)cc1)C1C3CCC(=O)C=C3CCC21` (stereo not drawn) [Conjugate 2], for which the Ka is 4.6 ± 3.0 × 10^−6 L.M^−1.
With `CC1(C)SC2C(NC(=O)Cc3ccc(CC(=O)OC4CCC5C6CCc7cc(O)ccc7C6CCC45C)cc3)C(=O)N2C1C(=O)O` (stereo not drawn) [Conjugate 30], the Ka is 3.8 ± 2.9 × 10^−6 L.M^−1.
On the same count and under the same terms, for `CC1(C)SC2C(NC(=O)Cc3ccc(CC(=O)OC4CCC5C6CCC7=CC(=O)CCC7(C)C6CCC45C)cc3)C(=O)N2C1C(=O)O` (stereo not drawn) [Conjugate 31] the value was 4.1 ± 3.2 × 10^−6 L.M^−1.
Still for that read-out and setting: for `CC1(C)SC2C(NC(=O)Cc3ccc(CC(=O)OC4CCC5C6CCc7cc(O)ccc7C6CCC45C)cc3)C(=O)N2C1C(=O)O` (stereo not drawn) [Conjugate 32] the value was 4.8 ± 3.5 × 10^−6 L.M^−1.

A further data set deals with T2, β-lactamase of Enterobacter cloacae P99 (Enterobacter cloacae, UniProt P05364).
T2 construct: Class C β-lactamase as that extracted from Enterobacter cloacae P99; host or cells: Enterobacter cloacae P99 (enzyme described as extracted from this strain)
T2 sequence (P05364 21-381): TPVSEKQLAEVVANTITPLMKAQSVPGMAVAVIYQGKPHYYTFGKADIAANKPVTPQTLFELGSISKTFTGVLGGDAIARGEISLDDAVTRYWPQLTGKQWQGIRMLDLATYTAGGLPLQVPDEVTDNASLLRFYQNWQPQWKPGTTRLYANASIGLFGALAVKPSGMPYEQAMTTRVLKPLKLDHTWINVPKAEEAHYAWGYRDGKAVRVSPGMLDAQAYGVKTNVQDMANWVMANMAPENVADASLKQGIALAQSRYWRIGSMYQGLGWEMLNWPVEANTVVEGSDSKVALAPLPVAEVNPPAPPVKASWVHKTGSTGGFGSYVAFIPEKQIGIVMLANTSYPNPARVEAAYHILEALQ
As to the kind of experiment: Ki of conjugates, calculated using the β-lactamase of Enterobacter cloacae P99.
Settings: not given
The class given is biochemical.
Excerpt: as §1
^x(Column 9): calculated using the β-lactamase of Enterobacter cloacae P99
Take `Cc1onc(-c2ccc(C(=O)OC3CCC4C5CCc6cc(O)ccc6C5CCC34C)cc2)c1C(=O)NC1C(=O)N2C1SC(C)(C)C2C(=O)O` (stereo not drawn) [Conjugate 4]: the inhibition constant (Ki) is 24 ± 26 nM.
Still for that read-out and setting: for `Cc1onc(-c2ccc(C(=O)OC3CCC4C5CCC6=CC(=O)CCC6C5CCC34C)cc2)c1C(=O)NC1C(=O)N2C1SC(C)(C)C2C(=O)O` (stereo not drawn) [Conjugate 5] the value was 18 ± 23 nM; for `Cc1onc(-c2ccc(C(=O)OC3CCC4C5CCC6=CC(=O)CCC6(C)C5CCC34C)cc2)c1C(=O)NC1C(=O)N2C1SC(C)(C)C2C(=O)O` (stereo not drawn) [Conjugate 6], 22 ± 19 nM.
Still for that read-out and setting: for `CC(=O)C1CCC2C3CCC4=CC(=O)CCC4(C)C3C(OC(=O)c3ccc(-c4noc(C)c4C(=O)NC4C(=O)N5C4SC(C)(C)C5C(=O)O)cc3)CC12C` (stereo not drawn) [Conjugate 7] the value was 19 ± 27 nM.
The same measure, in the same setting: for `Cc1onc(-c2ccc(C(=O)NCCCCC(=O)OC3CCC4C5CCC6=CC(=O)CCC6C5CCC34C)cc2)c1C(=O)NC1C(=O)N2C1SC(C)(C)C2C(=O)O` (stereo not drawn) [Conjugate 8] the value was 23 ± 18 nM; for `Cc1onc(-c2ccc(C(=O)NCCCCC(=O)OC3CCC4C5CCC6=CC(=O)CCC6(C)C5CCC34C)cc2)c1C(=O)NC1C(=O)N2C1SC(C)(C)C2C(=O)O` (stereo not drawn) [Conjugate 9], 17 ± 21 nM; for `Cc1onc(-c2ccc(OCCOC3CCC4C5CCc6cc(O)ccc6C5CCC34C)c(Cl)c2)c1C(=O)NC1C(=O)N2C1SC(C)(C)C2C(=O)O` (stereo not drawn) [Conjugate 10], 14 ± 17 nM.
`Cc1onc(-c2ccc(OCCOC3CCC4C5CCC6=CC(=O)CCC6C5CCC34C)c(Cl)c2)c1C(=O)NC1C(=O)N2C1SC(C)(C)C2C(=O)O` (stereo not drawn) [Conjugate 11]: the inhibition constant (Ki) is 12 ± 14 nM.
Same read-out and setting: for `Cc1onc(-c2ccc(OCCOC3CCC4C5CCC6=CC(=O)CCC6(C)C5CCC34C)c(Cl)c2)c1C(=O)NC1C(=O)N2C1SC(C)(C)C2C(=O)O` (stereo not drawn) [Conjugate 12] the value was 15 ± 16 nM; for `CC(=O)C1CCC2C3CCC4=CC(=O)CCC4(C)C3C(OCCOc3ccc(-c4noc(C)c4C(=O)NC4C(=O)N5C4SC(C)(C)C5C(=O)O)cc3Cl)CC12C` (stereo not drawn) [Conjugate 13], 20 ± 21 nM.
Same read-out and setting: for `Cc1onc(-c2ccc(C(=O)NCCCOC3CCC4C5CCc6cc(O)ccc6C5CCC34C)cc2)c1C(=O)NC1C(=O)N2C1SC(C)(C)C2C(=O)O` (stereo not drawn) [Conjugate 14] the value was 18 ± 23 nM; for `Cc1onc(-c2ccc(C(=O)NCCCOC3CCC4C5CCC6=CC(=O)CCC6C5CCC34C)cc2)c1C(=O)NC1C(=O)N2C1SC(C)(C)C2C(=O)O` (stereo not drawn) [Conjugate 15], 28 ± 22 nM.
The same measure, in the same setting: for `Cc1onc(-c2ccc(C(=O)NCCCOC3CCC4C5CCC6=CC(=O)CCC6(C)C5CCC34C)cc2)c1C(=O)NC1C(=O)N2C1SC(C)(C)C2C(=O)O` (stereo not drawn) [Conjugate 16] the value was 26 ± 27 nM.
For `CC(=O)C1CCC2C3CCC4=CC(=O)CCC4(C)C3C(OCCCNC(=O)c3ccc(-c4noc(C)c4C(=O)NC4C(=O)N5C4SC(C)(C)C5C(=O)O)cc3)CC12C` (stereo not drawn) [Conjugate 17], the inhibitory constant (Ki) was 21 ± 24 nM.
Still for that read-out and setting: for `Cc1onc(-c2ccc(OC(=O)CCC(=O)OC3CCC4C5CCC6=CC(=O)CCC6(C)C5CCC34C)cc2)c1C(=O)NC1C(=O)N2C1SC(C)(C)C2C(=O)O` (stereo not drawn) [Conjugate 18] the value was 23 ± 19 nM.
On the same count and under the same terms, for `Cc1onc(-c2ccc(OC(=O)CCC(=O)OC3CCC4C5CCC6=CC(=O)CCC6C5CCC34C)cc2)c1C(=O)NC1C(=O)N2C1SC(C)(C)C2C(=O)O` (stereo not drawn) [Conjugate 19] the value was 21 ± 24 nM.
Take `Cc1onc(-c2ccc(NC(=O)CCOC3CCC4C5CCC6=CC(=O)CCC6(C)C5CCC34C)cc2)c1C(=O)NC1C(=O)N2C1SC(C)(C)C2C(=O)O` (stereo not drawn) [Conjugate 20]: the Ki was 29 ± 27 nM.
As to `Cc1onc(-c2ccc(NC(=O)CCOC3CCC4C5CCC6=CC(=O)CCC6C5CCC34C)cc2)c1C(=O)NC1C(=O)N2C1SC(C)(C)C2C(=O)O` (stereo not drawn) [Conjugate 21], the Ki was 30 ± 33 nM.
The same measure, in the same setting: for `Cc1onc(-c2ccc(NC(=O)CCOC3CCC4C5CCc6cc(O)ccc6C5CCC34C)cc2)c1C(=O)NC1C(=O)N2C1SC(C)(C)C2C(=O)O` (stereo not drawn) [Conjugate 23] the value was 19 ± 21 nM; for `Cc1onc(-c2ccc(OCCC(=O)OC3CCC4C5CCC6=CC(=O)CCC6(C)C5CCC34C)cc2)c1C(=O)NC1C(=O)N2C1SC(C)(C)C2C(=O)O` (stereo not drawn) [Conjugate 24], 21 ± 26 nM; for `Cc1onc(-c2ccc(OCCC(=O)OC3CCC4C5CCC6=CC(=O)CCC6C5CCC34C)cc2)c1C(=O)NC1C(=O)N2C1SC(C)(C)C2C(=O)O` (stereo not drawn) [Conjugate 25], 28 ± 31 nM.
On the same count and under the same terms, for `CC(=O)C1CCC2C3CCC4=CC(=O)CCC4(C)C3C(OC(=O)CCOc3ccc(-c4noc(C)c4C(=O)NC4C(=O)N5C4SC(C)(C)C5C(=O)O)cc3)CC12C` (stereo not drawn) [Conjugate 28] the value was 26 ± 26 nM; for `Cc1onc(-c2ccc(OCCC(=O)OC3CCC4C5CCc6cc(O)ccc6C5CCC34C)cc2)c1C(=O)NC1C(=O)N2C1SC(C)(C)C2C(=O)O` (stereo not drawn) [Conjugate 29], 21 ± 24 nM.

The test system of another data set is CC(=O)C1CCC2C3CCC4=CC(=O)CCC4(C)C3C(OC(=O)c3ccc(-c4noc(C)c4C(=O)NC4C(=O)N5C4SC(C)(C)C5C(=O)O)cc3)CC12C. The experiment in a line: purified protein, by the assay type. The following applies: other: conjugate; type C β-lactamase P99.
Regarding “type C β-lactamase from Enterobacter cloacae P99 (Enterobacter cloacae)”, the Km turned out to be 0.0017 µM and the catalytic constant (kcat) is 0.01 s⁻¹.

The test system of the next data set is CC1(C)SC2C(NC(=O)C(C(=O)OC3CCC4C5CCC6=CC(=O)CCC6C5CCC34C)c3ccccc3)C(=O)N2C1C(=O)O. As to the kind of experiment: purified protein, by the assay type. The following applies: other: conjugate; type C β-lactamase P99.
Turning to “type C β-lactamase from Enterobacter cloacae P99 (Enterobacter cloacae)”, the Michaelis-Menten constant (Km) worked out at 0.074 µM and the catalytic constant (kcat) worked out at 0.25 s⁻¹.

The subject of a further data set is O=C(Cc1cccs1)N[C@@H]1C(=O)N2C(C(=O)O)=C(/C=C/c3ccc([N+](=O)[O-])cc3[N+](=O)[O-])CS[C@H]12. The experiment in a line: purified protein, by the assay type. The following applies: other: reporter substrate; type C β-lactamase P99.
Consider “type C β-lactamase from Enterobacter cloacae P99 (Enterobacter cloacae)”, for which the Km was determined as 25 µM and the kcat was determined as 780 s⁻¹.
